In publication PMC10175918 (Communications Biology, 2023):
Read-outs that look alike come from different tables or passages of the source.

Tests used:
Assay in all cases: TGFα-shedding assay-based GPCR screening with chimeric Gα subunit proteins
Format in all cases: cell-based
[1] = target: T1, 348 GPCRs (Homo sapiens, UniProt O00222); settings: 10µM, Favipiravir 100μM
T1 construct: expressed in transfected cells; host or cells: HEK293A

[2] = target: T2, 348 GPCRs (Homo sapiens, UniProt O00270); settings: 10µM, Favipiravir 100μM
T2 construct: expressed in transfected cells; host or cells: HEK293A
T2 sequence (O00270 whole entry): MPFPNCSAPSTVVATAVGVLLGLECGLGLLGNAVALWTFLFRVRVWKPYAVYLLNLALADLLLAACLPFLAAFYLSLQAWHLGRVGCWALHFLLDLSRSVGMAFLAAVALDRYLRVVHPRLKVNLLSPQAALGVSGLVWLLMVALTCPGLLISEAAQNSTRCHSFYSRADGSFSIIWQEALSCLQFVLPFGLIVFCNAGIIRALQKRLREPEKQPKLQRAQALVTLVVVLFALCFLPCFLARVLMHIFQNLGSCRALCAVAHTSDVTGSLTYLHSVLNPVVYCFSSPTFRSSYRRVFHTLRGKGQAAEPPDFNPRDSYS

[3] = target: 348 GPCRs (Homo sapiens, UniProt O95665); settings: NTSR2 (neurotensin receptor type 2); 10µM, Favipiravir 100μM
Chain of 348 GPCRs (Homo sapiens, UniProt O95665) (O95665 whole entry): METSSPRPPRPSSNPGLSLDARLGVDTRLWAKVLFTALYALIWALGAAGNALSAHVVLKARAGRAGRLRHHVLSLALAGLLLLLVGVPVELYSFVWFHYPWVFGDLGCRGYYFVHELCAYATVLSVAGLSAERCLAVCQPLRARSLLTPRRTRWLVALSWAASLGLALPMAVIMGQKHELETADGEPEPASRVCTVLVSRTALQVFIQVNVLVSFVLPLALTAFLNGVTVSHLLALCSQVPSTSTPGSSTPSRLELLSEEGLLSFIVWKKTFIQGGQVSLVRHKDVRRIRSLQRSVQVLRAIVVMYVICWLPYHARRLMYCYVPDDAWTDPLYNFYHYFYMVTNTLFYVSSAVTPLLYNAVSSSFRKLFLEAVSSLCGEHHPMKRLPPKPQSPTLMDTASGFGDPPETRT

[4] = target: 348 GPCRs (Homo sapiens, UniProt P21453); settings: 10µM, Favipiravir 100μM
Chain of 348 GPCRs (Homo sapiens, UniProt P21453) (P21453 whole entry): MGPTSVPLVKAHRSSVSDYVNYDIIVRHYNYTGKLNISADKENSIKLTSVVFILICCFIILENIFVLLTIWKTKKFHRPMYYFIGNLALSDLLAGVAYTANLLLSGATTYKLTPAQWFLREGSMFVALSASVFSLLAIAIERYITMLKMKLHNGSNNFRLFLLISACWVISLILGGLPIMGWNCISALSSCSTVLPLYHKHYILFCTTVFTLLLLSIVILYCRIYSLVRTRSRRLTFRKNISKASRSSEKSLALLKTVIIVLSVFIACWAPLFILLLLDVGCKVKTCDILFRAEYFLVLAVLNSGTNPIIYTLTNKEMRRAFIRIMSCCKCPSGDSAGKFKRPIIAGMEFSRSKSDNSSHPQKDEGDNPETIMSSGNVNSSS

[5] = target: T3, 348 GPCRs (Homo sapiens, UniProt P25106)
T3 construct: expressed in transfected cells; host or cells: HEK293A
T3 sequence (P25106 whole entry): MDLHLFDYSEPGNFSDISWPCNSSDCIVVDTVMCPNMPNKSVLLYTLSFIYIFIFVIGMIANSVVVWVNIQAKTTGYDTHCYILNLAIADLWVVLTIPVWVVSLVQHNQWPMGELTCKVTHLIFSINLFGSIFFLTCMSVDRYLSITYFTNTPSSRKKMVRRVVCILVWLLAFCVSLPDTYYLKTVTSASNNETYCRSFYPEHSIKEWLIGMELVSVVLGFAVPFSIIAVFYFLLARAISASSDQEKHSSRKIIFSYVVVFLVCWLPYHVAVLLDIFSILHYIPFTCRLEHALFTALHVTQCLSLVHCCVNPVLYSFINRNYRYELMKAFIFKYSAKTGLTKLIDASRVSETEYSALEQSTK

[6] = target: 348 GPCRs (Homo sapiens, UniProt P28223); settings: 10µM, Favipiravir 100μM
Chain of 348 GPCRs (Homo sapiens, UniProt P28223) (P28223 whole entry): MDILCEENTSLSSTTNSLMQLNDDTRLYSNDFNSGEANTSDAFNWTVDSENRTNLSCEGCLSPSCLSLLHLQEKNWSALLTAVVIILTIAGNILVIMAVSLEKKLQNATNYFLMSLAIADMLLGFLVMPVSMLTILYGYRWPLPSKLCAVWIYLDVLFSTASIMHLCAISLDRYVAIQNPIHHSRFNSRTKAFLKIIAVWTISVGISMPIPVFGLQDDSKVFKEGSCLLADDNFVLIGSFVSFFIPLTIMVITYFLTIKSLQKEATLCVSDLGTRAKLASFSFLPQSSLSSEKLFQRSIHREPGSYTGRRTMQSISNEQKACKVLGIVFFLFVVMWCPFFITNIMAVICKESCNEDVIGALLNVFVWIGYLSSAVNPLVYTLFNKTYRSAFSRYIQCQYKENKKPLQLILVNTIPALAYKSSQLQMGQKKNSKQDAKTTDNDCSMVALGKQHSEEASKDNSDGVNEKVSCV

[7] = target: 348 GPCRs (Homo sapiens, UniProt P28566); settings: 5-HT1E (5-hydroxytryptamine receptor 1E); 10µM, Favipiravir 100μM
Chain of 348 GPCRs (Homo sapiens, UniProt P28566) (P28566 whole entry): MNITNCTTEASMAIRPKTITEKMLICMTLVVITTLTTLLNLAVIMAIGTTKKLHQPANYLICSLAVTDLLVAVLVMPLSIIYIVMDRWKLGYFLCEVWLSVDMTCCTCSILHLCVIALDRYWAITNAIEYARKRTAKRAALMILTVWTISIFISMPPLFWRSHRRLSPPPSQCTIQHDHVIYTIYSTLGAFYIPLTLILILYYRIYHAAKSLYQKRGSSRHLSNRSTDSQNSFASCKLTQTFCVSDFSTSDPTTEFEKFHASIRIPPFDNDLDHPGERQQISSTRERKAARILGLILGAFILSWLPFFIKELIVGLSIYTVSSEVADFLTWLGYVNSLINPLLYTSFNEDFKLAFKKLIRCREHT

[8] = target: T4, 348 GPCRs (Homo sapiens, UniProt P29275); settings: 10µM, Favipiravir 100μM
T4 construct: expressed in transfected cells; host or cells: HEK293A
T4 sequence (P29275 1-332): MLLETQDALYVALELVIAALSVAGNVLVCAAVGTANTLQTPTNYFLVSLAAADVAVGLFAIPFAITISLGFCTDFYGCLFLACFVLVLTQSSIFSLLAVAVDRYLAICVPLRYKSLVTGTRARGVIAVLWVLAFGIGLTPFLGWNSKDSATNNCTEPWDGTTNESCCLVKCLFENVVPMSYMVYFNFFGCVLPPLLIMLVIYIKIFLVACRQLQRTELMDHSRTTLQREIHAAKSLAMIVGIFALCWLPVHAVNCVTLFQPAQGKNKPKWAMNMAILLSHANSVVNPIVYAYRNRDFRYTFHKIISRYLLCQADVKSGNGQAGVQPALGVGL

[9] = target: T5, 348 GPCRs (Homo sapiens, UniProt P32248); settings: CCR7 (C-C motif chemokine receptor 7); 10µM, Favipiravir 100μM
T5 construct: expressed in transfected cells; host or cells: HEK293A
T5 sequence (P32248 25-378): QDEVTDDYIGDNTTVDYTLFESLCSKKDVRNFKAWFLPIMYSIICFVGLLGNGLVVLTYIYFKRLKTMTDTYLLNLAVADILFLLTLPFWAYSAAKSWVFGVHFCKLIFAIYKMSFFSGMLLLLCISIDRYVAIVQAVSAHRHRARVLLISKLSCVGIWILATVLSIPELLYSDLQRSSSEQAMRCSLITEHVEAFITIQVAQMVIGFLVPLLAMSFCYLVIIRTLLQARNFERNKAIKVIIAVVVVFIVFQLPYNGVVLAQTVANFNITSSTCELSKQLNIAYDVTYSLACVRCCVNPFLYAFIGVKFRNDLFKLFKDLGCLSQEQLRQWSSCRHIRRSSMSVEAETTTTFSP

[10] = target: T6, 348 GPCRs (Homo sapiens, UniProt Q01718)
T6 construct: expressed in transfected cells; host or cells: HEK293A
T6 sequence (Q01718 whole entry): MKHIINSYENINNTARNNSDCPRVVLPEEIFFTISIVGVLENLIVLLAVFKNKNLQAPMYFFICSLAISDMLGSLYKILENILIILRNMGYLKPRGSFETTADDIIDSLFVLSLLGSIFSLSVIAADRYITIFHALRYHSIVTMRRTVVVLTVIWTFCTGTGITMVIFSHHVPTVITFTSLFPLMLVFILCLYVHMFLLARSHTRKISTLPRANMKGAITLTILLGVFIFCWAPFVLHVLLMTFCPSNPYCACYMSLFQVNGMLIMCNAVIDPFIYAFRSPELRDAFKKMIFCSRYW

[11] = target: T7, 348 GPCRs (Homo sapiens, UniProt Q01726)
T7 construct: expressed in transfected cells; host or cells: HEK293A

[12] = target: T8, 348 GPCRs (Homo sapiens, UniProt Q99678); settings: 10µM, Favipiravir 100μM
T8 construct: expressed in transfected cells; host or cells: HEK293A

[13] = target: T9, 348 GPCRs (Homo sapiens, UniProt Q9BXC1); settings: 10µM, Favipiravir 100μM
T9 construct: expressed in transfected cells; host or cells: HEK293A
T9 sequence (Q9BXC1 whole entry): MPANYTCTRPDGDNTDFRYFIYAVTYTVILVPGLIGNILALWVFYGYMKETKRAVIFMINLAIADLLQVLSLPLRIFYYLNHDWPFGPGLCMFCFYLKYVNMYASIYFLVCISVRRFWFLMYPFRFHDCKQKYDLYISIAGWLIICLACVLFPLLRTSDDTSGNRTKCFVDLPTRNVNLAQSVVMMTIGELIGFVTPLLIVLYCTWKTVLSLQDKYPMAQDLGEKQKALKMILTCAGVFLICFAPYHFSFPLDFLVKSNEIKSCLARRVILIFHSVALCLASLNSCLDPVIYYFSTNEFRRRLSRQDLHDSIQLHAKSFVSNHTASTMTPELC

[14] = target: T10, 348 GPCRs (Homo sapiens, UniProt Q9BY21); settings: 10µM, Favipiravir 100μM
T10 construct: expressed in transfected cells; host or cells: HEK293A
T10 sequence (Q9BY21 whole entry): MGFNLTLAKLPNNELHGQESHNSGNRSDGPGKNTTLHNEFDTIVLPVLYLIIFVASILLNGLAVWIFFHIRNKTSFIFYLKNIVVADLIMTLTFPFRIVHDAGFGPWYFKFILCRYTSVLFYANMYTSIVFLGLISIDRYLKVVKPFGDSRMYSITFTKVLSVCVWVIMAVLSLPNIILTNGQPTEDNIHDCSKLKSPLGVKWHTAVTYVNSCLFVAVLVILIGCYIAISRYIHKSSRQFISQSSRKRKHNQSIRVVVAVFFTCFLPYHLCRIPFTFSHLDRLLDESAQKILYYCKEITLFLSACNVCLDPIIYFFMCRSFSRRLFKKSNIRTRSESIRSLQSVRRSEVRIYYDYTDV

[15] = target: T11, 348 GPCRs (Homo sapiens, UniProt Q9H1Y3); settings: 10µM, Favipiravir 100μM
T11 construct: expressed in transfected cells; host or cells: HEK293A
T11 sequence (Q9H1Y3 whole entry): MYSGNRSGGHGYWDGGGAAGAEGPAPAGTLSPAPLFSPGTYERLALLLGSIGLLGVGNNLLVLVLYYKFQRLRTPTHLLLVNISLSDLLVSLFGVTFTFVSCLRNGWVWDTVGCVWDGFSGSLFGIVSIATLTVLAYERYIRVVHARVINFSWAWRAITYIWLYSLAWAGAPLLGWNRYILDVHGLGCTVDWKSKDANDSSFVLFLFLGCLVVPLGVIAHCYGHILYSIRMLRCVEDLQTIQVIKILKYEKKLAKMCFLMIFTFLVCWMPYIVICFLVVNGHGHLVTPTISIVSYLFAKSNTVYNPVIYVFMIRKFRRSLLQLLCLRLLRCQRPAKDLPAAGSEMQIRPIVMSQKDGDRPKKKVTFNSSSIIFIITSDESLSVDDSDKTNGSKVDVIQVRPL

[16] = target: T12, 348 GPCRs (Homo sapiens, UniProt Q9H244)
T12 construct: expressed in transfected cells; host or cells: HEK293A
T12 sequence (Q9H244 whole entry): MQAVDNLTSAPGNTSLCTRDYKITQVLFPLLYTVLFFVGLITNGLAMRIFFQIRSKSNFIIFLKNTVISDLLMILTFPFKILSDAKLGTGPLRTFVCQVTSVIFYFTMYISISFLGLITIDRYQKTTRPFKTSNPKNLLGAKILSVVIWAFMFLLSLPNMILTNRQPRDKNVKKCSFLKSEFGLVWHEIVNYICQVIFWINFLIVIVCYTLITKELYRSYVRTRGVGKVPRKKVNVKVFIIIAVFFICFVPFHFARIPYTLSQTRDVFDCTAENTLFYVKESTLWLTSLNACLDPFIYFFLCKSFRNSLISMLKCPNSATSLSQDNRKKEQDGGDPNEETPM

[17] = target: T13, 348 GPCRs (Homo sapiens, UniProt Q9P1P5); settings: 10µM, Favipiravir 100μM
T13 construct: expressed in transfected cells; host or cells: HEK293A
T13 sequence (Q9P1P5 1-351): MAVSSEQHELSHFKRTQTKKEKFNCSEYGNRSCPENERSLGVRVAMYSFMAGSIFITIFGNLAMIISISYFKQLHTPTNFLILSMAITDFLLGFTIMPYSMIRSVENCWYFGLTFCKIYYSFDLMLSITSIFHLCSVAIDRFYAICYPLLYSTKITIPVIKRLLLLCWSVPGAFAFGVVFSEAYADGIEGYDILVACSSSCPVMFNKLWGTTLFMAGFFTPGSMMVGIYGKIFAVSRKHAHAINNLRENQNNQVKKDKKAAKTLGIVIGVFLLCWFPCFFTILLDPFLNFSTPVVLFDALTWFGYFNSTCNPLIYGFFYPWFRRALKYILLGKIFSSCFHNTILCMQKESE

[18] = read-out: % GPCR activation compared to TPA, GRM8 (glutamate receptor, metabotropic 8)
[19] = read-out: % GPCR activation compared to TPA, GPR31 (G Protein-Coupled Receptor 31)
[20] = read-out: % GPCR activation compared to TPA, S1PR1 (sphingosine-1-phosphate receptor 1)
[21] = read-out: % GPCR activation compared to TPA, GPCR CXCR7 (chemokine (C-X-C motif) receptor 7)
[22] = read-out: % GPCR activation compared to TPA, 5-HT2A (5-hydroxytryptamine receptor 2A)
[23] = read-out: % GPCR activation compared to TPA, ADORA2B (adenosine A2b receptor)
[24] = read-out: % GPCR activation compared to TPA, GPCR MC2R (melanocortin 2 receptor)
[25] = read-out: % GPCR activation compared to TPA, GPCR MC1R (melanocyte-stimulating hormone receptor)
[26] = read-out: % GPCR activation compared to TPA, GPR20 (G protein-coupled receptor 20)
[27] = read-out: % GPCR activation compared to TPA, GPR174 (G-Protein Coupled Receptor 174)
[28] = read-out: % GPCR activation compared to TPA, GPR87 (G Protein-Coupled Receptor 87)
[29] = read-out: % GPCR activation compared to TPA, OPN3 (opsin 3)
[30] = read-out: % GPCR activation compared to TPA, GPCR P2Y12 (purinergic receptor P2Y, G-protein coupled, 12)
[31] = read-out: % GPCR activation compared to TPA, TAAR2 (trace amine associated receptor 2)
[32] = GRM8 (glutamate receptor, metabotropic 8), read-out: % GPCR activation compared to TPA
[33] = GPR31 (G Protein-Coupled Receptor 31), read-out: % GPCR activation compared to TPA
[34] = S1PR1 (sphingosine-1-phosphate receptor 1), read-out: % GPCR activation compared to TPA
[35] = GPCR CXCR7 (chemokine (C-X-C motif) receptor 7), read-out: % GPCR activation compared to TPA
[36] = 5-HT2A (5-hydroxytryptamine receptor 2A), read-out: % GPCR activation compared to TPA
[37] = ADORA2B (adenosine A2b receptor), read-out: % GPCR activation compared to TPA
[38] = GPCR MC2R (melanocortin 2 receptor), read-out: % GPCR activation compared to TPA
[39] = GPCR MC1R (melanocyte-stimulating hormone receptor), read-out: % GPCR activation compared to TPA
[40] = GPR20 (G protein-coupled receptor 20), read-out: % GPCR activation compared to TPA
[41] = GPR174 (G-Protein Coupled Receptor 174), read-out: % GPCR activation compared to TPA
[42] = GPR87 (G Protein-Coupled Receptor 87), read-out: % GPCR activation compared to TPA
[43] = OPN3 (opsin 3), read-out: % GPCR activation compared to TPA
[44] = GPCR P2Y12 (purinergic receptor P2Y, G-protein coupled, 12), read-out: % GPCR activation compared to TPA
[45] = TAAR2 (trace amine associated receptor 2), read-out: % GPCR activation compared to TPA

T1 sequence (O00222 34-908): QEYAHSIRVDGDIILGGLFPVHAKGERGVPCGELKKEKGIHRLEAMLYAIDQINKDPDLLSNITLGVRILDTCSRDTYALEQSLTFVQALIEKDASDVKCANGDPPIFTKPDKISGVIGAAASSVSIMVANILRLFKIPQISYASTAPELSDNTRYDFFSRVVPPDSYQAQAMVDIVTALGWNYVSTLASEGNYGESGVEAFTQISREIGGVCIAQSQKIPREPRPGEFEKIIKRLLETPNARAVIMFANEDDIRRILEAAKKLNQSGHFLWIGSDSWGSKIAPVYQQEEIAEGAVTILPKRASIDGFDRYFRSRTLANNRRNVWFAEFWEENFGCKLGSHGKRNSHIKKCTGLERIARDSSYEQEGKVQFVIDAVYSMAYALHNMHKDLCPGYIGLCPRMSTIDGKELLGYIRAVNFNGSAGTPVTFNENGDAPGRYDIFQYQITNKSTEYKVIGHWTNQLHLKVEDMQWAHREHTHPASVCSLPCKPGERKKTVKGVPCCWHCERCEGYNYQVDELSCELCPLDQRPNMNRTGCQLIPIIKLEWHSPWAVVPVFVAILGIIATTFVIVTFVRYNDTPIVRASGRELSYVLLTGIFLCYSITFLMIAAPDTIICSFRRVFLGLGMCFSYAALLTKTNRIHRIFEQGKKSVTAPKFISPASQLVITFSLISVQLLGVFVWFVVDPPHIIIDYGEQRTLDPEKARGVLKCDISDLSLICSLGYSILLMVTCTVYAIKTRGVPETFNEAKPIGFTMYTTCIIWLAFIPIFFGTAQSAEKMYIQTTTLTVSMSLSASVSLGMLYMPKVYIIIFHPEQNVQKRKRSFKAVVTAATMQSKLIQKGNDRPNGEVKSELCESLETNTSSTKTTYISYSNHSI

Row | Compound | activation at 10 µM [1, 18] [%] | activation at 100 µM [2, 19] [%] | % GPCR activation compared to TPA [3] [%] | activation at 10 µM [4, 20] [%] | activation at 10 µM [5, 21] [%] | activation at 100 µM [6, 22] [%] | % GPCR activation compared to TPA [7] [%] | activation at 10 µM [8, 23] [%] | % GPCR activation compared to TPA [9] [%] | activation at 10 µM [10, 24] [%] | activation at 10 µM [1, 32] [%] | activation at 100 µM [2, 33] [%] | activation at 10 µM [4, 34] [%] | activation at 100 µM [6, 36] [%] | activation at 10 µM [8, 37] [%] | activation at 100 µM [12, 40] [%] | activation at 100 µM [13, 41] [%] | activation at 100 µM [14, 42] [%] | activation at 100 µM [15, 43] [%] | activation at 100 µM [17, 45] [%] | further results
1 | CC(C)OC(=O)[C@H](C)N[P@](=O)(OC[C@H]1O[C@@H](n2ccc(=O)[nH]c2=O)[C@](C)(F)[C@@H]1O)Oc1ccccc1 [sofosbuvir] | -2.01 | -0.455 | 0.2553 | 0.0873 | -0.832 | -1.66 | -1.207 | 0.00372 | -0.9167 | -3.14 | – | – | – | – | – | – | – | – | – | – | activation at 10 µM [11, 25]: 0.575%; activation at 100 µM [12, 26]: -2.45%; activation at 100 µM [13, 27]: -1.73%; activation at 100 µM [14, 28]: 2.98%; activation at 100 µM [15, 29]: 0.266%; activation at 10 µM [16, 30]: -2.59%; activation at 100 µM [17, 31]: -0.403%
2 | CC(C)C(=O)OC[C@H]1O[C@@H](n2ccc(NO)nc2=O)[C@H](O)[C@@H]1O [molnupiravir] | – | – | 0.1275 | – | – | – | -0.994 | – | 0.5462 | – | -2.47 | -1.71 | -2.19 | -0.697 | -1.6 | -0.078 | -2 | 0.11 | -0.438 | -0.153 | activation at 10 µM [5, 35]: -1.56%; activation at 10 µM [10, 38]: -0.524%; activation at 10 µM [11, 39]: 0.0444%; activation at 10 µM [16, 44]: -6.75%
3 | NC(=O)c1nc(F)cnc1O [favipiravir, 6-fluoro-3-hydroxy-2-pyrazinecarboxamide] | – | – | -3.411 | – | – | – | 0.5554 | – | -0.3349 | – | -1.56 | -1.25 | -0.836 | 2.2 | 1.67 | 3.63 | -2.2 | -4.67 | -0.343 | 0.753 | activation at 100 µM ([5]; GPCR CXCR7 (chemokine (C-X-C motif) receptor 7), 100μM, read-out: % GPCR activation compared to TPA): -1.9%; activation at 100 µM ([10]; GPCR MC2R (melanocortin 2 receptor), 100μM, read-out: % GPCR activation compared to TPA): -0.849%; activation at 100 µM ([11]; GPCR MC1R (melanocyte-stimulating hormone receptor), 100μM, read-out: % GPCR activation compared to TPA): -0.375%; activation at 100 µM ([16]; GPCR P2Y12 (purinergic receptor P2Y, G-protein coupled, 12), 100μM, read-out: % GPCR activation compared to TPA): -4.09%
4 | N#C[C@@]1(c2ccc3c(N)ncnn23)O[C@H](CO)[C@@H](O)[C@H]1O [GS441524] | – | – | 1.005 | – | – | – | -1.385 | – | -0.998 | – | -1.24 | -1.59 | -1.43 | -1.21 | 1.2 | 7.2 | -2.64 | -3.93 | -0.281 | -1.42 | activation at 10 µM [5, 35]: 1.43%; activation at 10 µM [10, 38]: -0.688%; activation at 10 µM [11, 39]: 0.496%; activation at 10 µM [16, 44]: -4.31%
5 | CCC(CC)COC(=O)[C@H](C)N[P@](=O)(OC[C@H]1O[C@@](C#N)(c2ccc3c(N)ncnn23)[C@H](O)[C@@H]1O)Oc1ccccc1 [remdesivir] | -1.11 | -1.64 | -1.859 | -1.92 | 0.898 | 4.22 | -0.07183 | 1.79 | – | -1.06 | – | – | – | – | – | – | – | – | – | – | activation at 10 µM [11, 25]: -0.549%; activation at 100 µM [12, 26]: 8.9%; activation at 100 µM [13, 27]: 1.12%; activation at 100 µM [14, 28]: -0.159%; activation at 100 µM [15, 29]: -0.473%; activation at 10 µM [16, 30]: 0.718%; activation at 100 µM [17, 31]: 1.05%
